{
  "source": "BindingDB's records for doi:10.1021/acs.jmedchem.6b00330",
  "about": "(University of Bonn, 2016)",
  "key": {"[1]": {"experiment": "Inhibition of c-terminal GFP-tagged human ABCG2 expressed in MDCK2 cells assessed as enhancement of SN-38-induced cytotoxicity incubated for 72 hrs by MTT assay"}, "[2]": {"experiment": "Inhibition of c-terminal GFP-tagged human ABCG2 expressed in MDCK2 cells assessed as enhancement of Hoechst 33342-induced cytotoxicity incubated for 72 hrs by MTT assay"}, "[3]": {"target": "T1, Broad substrate specificity ATP-binding cassette transporter ABCG2 (Homo sapiens, UniProt Q9UNQ0)", "T1 sequence (Q9UNQ0 whole entry)": "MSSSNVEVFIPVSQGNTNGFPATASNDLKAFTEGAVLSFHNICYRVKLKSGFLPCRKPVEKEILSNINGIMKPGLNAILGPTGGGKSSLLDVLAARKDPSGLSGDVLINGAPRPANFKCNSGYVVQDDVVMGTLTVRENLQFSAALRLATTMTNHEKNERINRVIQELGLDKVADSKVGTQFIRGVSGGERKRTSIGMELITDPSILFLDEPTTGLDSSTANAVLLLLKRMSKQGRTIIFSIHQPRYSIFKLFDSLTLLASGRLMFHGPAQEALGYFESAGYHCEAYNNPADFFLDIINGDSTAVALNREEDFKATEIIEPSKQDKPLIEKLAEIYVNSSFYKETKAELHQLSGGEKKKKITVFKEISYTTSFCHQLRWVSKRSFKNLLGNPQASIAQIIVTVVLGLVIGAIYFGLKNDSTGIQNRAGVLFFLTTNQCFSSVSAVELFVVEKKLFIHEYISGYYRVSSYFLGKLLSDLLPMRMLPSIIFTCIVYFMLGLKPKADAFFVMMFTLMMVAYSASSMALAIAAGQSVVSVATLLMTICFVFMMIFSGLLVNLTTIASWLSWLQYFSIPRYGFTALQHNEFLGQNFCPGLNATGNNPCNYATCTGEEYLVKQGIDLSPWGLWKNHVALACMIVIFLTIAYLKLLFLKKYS", "experiment": "Inhibition of c-terminal GFP-tagged human ABCG2 expressed in MDCK2 cells assessed as enhancement of Hoechst 33342-induced cytotoxicity incubated for 72 hrs by MTT assay"}, "[4]": {"target": "T1, Broad substrate specificity ATP-binding cassette transporter ABCG2", "experiment": "Inhibition of c-terminal GFP-tagged human ABCG2 expressed in MDCK2 cells assessed as enhancement of SN-38-induced cytotoxicity incubated for 72 hrs by MTT assay"}},
  "data": [
    {"compound": "N#Cc1ccc(Nc2nc(-c3ccccc3)nc3ccccc23)cc1", "values": [
      {"measurement": "EC50", "setting": "[1]", "result": 41, "unit": "nM"},
      {"measurement": "EC50", "setting": "[2]", "result": 53, "unit": "nM"}
    ]},
    {"compound": "O=[N+]([O-])c1cc(Nc2nc(-c3ccccc3)nc3ccccc23)ccc1O", "values": [
      {"measurement": "EC50", "setting": "[3]", "result": 130, "unit": "nM"},
      {"measurement": "EC50", "setting": "[4]", "result": 120, "unit": "nM"}
    ]}
  ]
}
